Measured values taken from patent US20230293470A1, “APPLICATION OF THYROID HORMONES AND ITS ANALOGUES IN PREPARATION OF DRUGS FOR TREATING ALPHA-THALASSEMIA” (SHANGHAI SPH RARE DISEASE PHARMACEUTICAL CO., LTD., priority 2020, published 2023).

How the values were obtained:
[1] = test system: zeta-globin gene (hbae5) expression in zebrafish embryos; assay: qPCR of zeta-globin gene (hbae5) expression in zebrafish embryos; assay type: in vivo; conditions: 5 μmon, from 96 hours post fertilization, 24 hours treatment
Experimental: (§1) K562 cells were cultured in RPMI 1640 medium supplemented with 10% (v/v) fetal bovine serum; Hemin was dissolved into 0.2 mol/L NaOH solution, and the working concentration for treating K562 cells is 20 μmon; Triac, T3 and T4 were dissolved into dimethyl sulfoxide (DMSO), and the working concentration for treating K562 cells and zebrafish embryos is 20 μmon and 5 μmon, respectively.
During the development of zebrafish embryos, Triac, T3 and T4 were incubated with the zebrafish embryos at 96 hours post fertilization. After treatment with Triac, T3 and T4 for 24 hours, respectively, zebrafish embryos were collected. TRIzol reagent (Invitrogen) was used to extract total RNA, then a reverse transcription kit (ReverTra Ace, TOYOBO) was used to synthesize cDNA, and finally, a SYBRGreen Realtime PCR Master Mix (TOYOBO) reagent was used to perform quantitative PCR.
(§2) A quantitative PCR reaction system was as follows:
(§3) Conditions for a quantitative PCR reaction were as follows: • Hot start: 95° C., 10 minutes; • Denaturation: 95° C., 10 seconds; and • Annealing/stretching: 60° C., 30 seconds. • 40 cycles.
(§4) Dissolution Curve Analysis.

[2] = test system: zeta-globin gene (hbae5) expression in zebrafish embryos; assay: Whole-mount mRNA in situ hybridization (WISH) of zeta-globin gene (hbae5) in zebrafish embryos; assay type: in vivo; conditions: 5 μmon, from 96 hours post fertilization, 24 hours treatment
Experimental: as §1
During the development of zebrafish embryos, Triac, T3 and T4 were incubated with the zebrafish embryos at 96 hours post fertilization. After treatment with Triac, T3 and T4 for 24 hours, respectively, zebrafish embryos were fixed by 4% paraformaldehyde. The expression of zeta-globin gene (hbae5) was detected by Whole-mount mRNA in situ hybridization (WISH).

[3] = test system: zeta-globin gene (HBZ) expression in K562 cells; assay: qPCR of zeta-globin gene (HBZ) expression in hemin-treated K562 cells; assay type: cell-based, human; conditions: hemin 20 μmon plus Triac 20 μmon, 72 hours
Experimental: as §1
K562 cells were treated with hemin or hemin plus Triac for 72 hours, respectively, centrifugation was performed at 2000 rpm for 5 minutes to collect cells, a TRIzol reagent (Invitrogen) was used to extract total RNA, then a reverse transcription kit (ReverTra Ace, TOYOBO) was used to synthesize cDNA, and finally, a SYBR Green Realtime PCR Master Mix (TOYOBO) reagent was used to perform quantitative PCR.
as §2, §3, §4

Row | SMILES | up-regulation of expression of zeta-globin gene (hbae5), qPCR [1] | induction of expression of zeta-globin gene (hbae5), WISH [2] | up-regulation of expression of zeta-globin gene (HBZ), qPCR [3]
1 | N[C@@H](Cc1cc(I)c(Oc2ccc(O)c(I)c2)c(I)c1)C(=O)O [T3, 3,3′,5-Triiodo-L-thyronine] | 31 folds | significantly induce | –
2 | N[C@@H](Cc1cc(I)c(Oc2cc(I)c(O)c(I)c2)c(I)c1)C(=O)O [T4, 3,3′,5,5′-tetraiodothyronine] | 41 folds | significantly induce | –
3 | O=C(O)Cc1cc(I)c(Oc2ccc(O)c(I)c2)c(I)c1 [Triac, 2-[4-(4-hydroxy-3-iodophenoxy)-3,5-diiodophenyl] acetic acid] | 76 folds | significantly induce | 50.9 folds
